Assay results taken from publication PMC12871559, “A general model for analysis of linear and hyperbolic enzyme inhibition mechanisms” (FEBS Open Bio, 2025).

What was measured:
Assay in all cases: initial rates of NPβglc hydrolysis at […] nm, Lineweaver-Burk replots
Assay type in all cases: biochemical
Sfβgly [1] = biological target: T1, Sfβgly (Spodoptera frugiperda, UniProt O61594, S247Y)
T1 construct: only point mutants assayed here

Sfβgly [2] = biological target: T2, Sfβgly (Spodoptera frugiperda, UniProt O61594, N249Q)
T2 construct: only point mutants assayed here
T2 sequence (O61594 17-509 limits assumed, stated change not applied): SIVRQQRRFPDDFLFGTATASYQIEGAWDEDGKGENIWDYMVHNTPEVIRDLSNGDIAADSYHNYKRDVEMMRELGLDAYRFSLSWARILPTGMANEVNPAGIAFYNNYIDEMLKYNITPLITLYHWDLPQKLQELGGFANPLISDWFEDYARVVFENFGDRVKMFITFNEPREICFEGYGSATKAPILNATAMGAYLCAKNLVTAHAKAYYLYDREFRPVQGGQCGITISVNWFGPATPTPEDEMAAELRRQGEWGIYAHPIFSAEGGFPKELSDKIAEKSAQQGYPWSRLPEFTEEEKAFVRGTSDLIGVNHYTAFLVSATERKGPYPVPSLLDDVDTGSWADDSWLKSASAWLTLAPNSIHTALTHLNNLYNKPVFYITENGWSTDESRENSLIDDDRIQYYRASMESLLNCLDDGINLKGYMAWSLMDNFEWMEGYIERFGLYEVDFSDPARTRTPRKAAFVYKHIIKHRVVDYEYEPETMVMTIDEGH

Sfβgly [3] = biological target: T3, Sfβgly (Spodoptera frugiperda, UniProt O61594, F251A)
T3 construct: only point mutants assayed here
T3 sequence (O61594 17-509 limits assumed, stated change not applied): as above

Sfβgly [4] = biological target: T4, Sfβgly (Spodoptera frugiperda, UniProt O61594, N249A)
T4 construct: only point mutants assayed here
T4 sequence (O61594 17-509 limits assumed, stated change not applied): as above

T1 sequence (O61594 17-509 limits assumed, stated change not applied): as above

| Compound | Ki (Sfβgly [1]) [mM] | Ki (Sfβgly [2]) [mM] | Ki (Sfβgly [3]) [mM] | Ki (Sfβgly [4]) [mM] |
| --- | --- | --- | --- | --- |
| NC(CO)(CO)CO [Tris, 2‐amino‐2‐(hydroxymethyl)‐1,3‐propanediol] | 71 | 32 | 10 | 0.6 |
| c1c[nH]cn1 [imidazole] | 35 | 39 | 12 | 18 |
